Assay: Dye stability under Xenon test conditions; UV absorption after Xenon exposure
Assay type: physicochemical
Details: thin layer on TAC base
Procedure: Measurements are carried out at the Ci 4000 Xenon Weather-Ometer of Atlas Electric Devices Company. The extinction wavelength spectrum represents sunlight spectrum. Experiments are carried out with samples consisting of thin layers of UV absorbing complexes coated on TAC base materials, and dryed under air before Xenon radiation was started.
Solutions for coating on the TAC sheet materials are prepared by making a 5% gelatin solution of UV-gelatin in a suitable solvent (water/ethanol 50:50) for 30 minutes at a temperature of 40 C.
A fixed concentration of the UV absorbing complex was applied with a concentration of 5*10^−3 Mol/L
UV absorption of samples is measured with standard UV spectrophotometer system. UV absorption is directly correlated to the number of functional molecules in the samples after the Xenon treatment, and the results are listed in the following table.
UV absorption after Xenon radiation (in hours treatment time).

UV absorption after Xenon radiation (0 hours treatment time): 0.85 | UV absorption after Xenon radiation (40 hours treatment time): 0.53 | UV absorption after Xenon radiation (80 hours treatment time): 0.20 | UV absorption after Xenon radiation (120 hours treatment time): 0.14
Compound: O=c1c(O)c(-c2ccc(O)c(O)c2)oc2cc(O)cc(O)c12 [Quercetin]

Source: patent publication US20060204457A1, “Cosmetic uv-screen compositions and aminobutadiene-based uv-absorbing complexes therefor” (priority 2003, published 2006)
